# System: TNF-α and IL-1 secretion
# Experiment: investigated assays, not specified which (TNF-α/IL-1 secretion in human PBMC, in mouse peritoneal macrophages, LPS-induced secretion in mice, writhing assay, LPS-induced shock)
# Settings: at least two of five assays, not named; active = IC50 20 μM or lower (PBMC), 10 μM or lower (macrophages), 30% or more TNF-α inhibition at 10 mg/kg, analgetic activity as acetylsalicylic acid or better, survival 40% or more at 30 mg/kg
# Procedure: The inhibitory action of the present compounds upon TNF-α and IL-1 secretion was determined by the following in vitro and in vivo experiments:
# Human peripheral blood mononuclear cells (PBMC) were prepared from heparinized whole blood after separating PBMC on Ficoll-Paque™Plus (Amersham-Pharmacia). To determine the TNF-α level, 3.5-5×10^4 cells were cultivated in a total volume of 200 μl for 18 to 24 hours on microtitre plates with a flat bottom (96 wells, Falcon) in RPMI 1640 medium, into which there were added 10% FBS (Fetal Bovine Serum, Biowhittaker) previously inactivated at 54° C./30 min, 100 units/ml of penicillin, […] of streptomycin and 20 mM HEPES (GIBCO). The cells were incubated at 37° C. in an atmosphere with 5% CO2 and 90% humidity. […] The IL-1 level was determined in an assay under the same conditions and with the same number of cells and the same concentration of stimuli stimulus by ELISA procedure (R&D Systems). The percentage of inhibition of TNF-α or IL-1 production was calculated by the equation: • % inhibition=[1−(TS-NC)/(PC-NC)]*100. […]
# In order to obtain peritoneal macrophages, Balb/C mouse strain males, age 8 to 12 weeks, were injected i.p. with 300 μg of zymosan (SIGMA) dissolved in a phosphate buffer (PBS) in a total volume of 0.1 ml/mouse. […] The TNF-α level in the cell supernatant was determined by ELISA procedure (R&D Systems, Biosource). […]
compound,measurement,value
"O=Cc1scc2c1-c1ccccc1Sc1ccccc1-2 [Example 14, 2,8-Dithia-dibenzo[e,h]azulene-1-carbaldehyde]",activity in the investigated assays,activity in at least two investigated assays

# — patent US20050131056A1, “2- thia-dibenzoazulenes as inhibitors of tumor necrosis factor production and intermediates for the preparation thereof” (Pliva-Istrazivacki Institut d.o.o., priority 2002, published 2005)
